From paper PMC2943425 (Journal of medicinal chemistry, 2010)

Legend:
neuropathic pain = details: cited from earlier work
[1] = target: Substance P receptors (GPI) (Cavia porcellus, UniProt P30547); assay: GPI substance P antagonist assay in the presence of 1 μM naloxone; parameters: species or system guinea pig; details: against Substance P induced contraction, n = 4
Chain of Substance P receptors (GPI) (P30547 whole entry): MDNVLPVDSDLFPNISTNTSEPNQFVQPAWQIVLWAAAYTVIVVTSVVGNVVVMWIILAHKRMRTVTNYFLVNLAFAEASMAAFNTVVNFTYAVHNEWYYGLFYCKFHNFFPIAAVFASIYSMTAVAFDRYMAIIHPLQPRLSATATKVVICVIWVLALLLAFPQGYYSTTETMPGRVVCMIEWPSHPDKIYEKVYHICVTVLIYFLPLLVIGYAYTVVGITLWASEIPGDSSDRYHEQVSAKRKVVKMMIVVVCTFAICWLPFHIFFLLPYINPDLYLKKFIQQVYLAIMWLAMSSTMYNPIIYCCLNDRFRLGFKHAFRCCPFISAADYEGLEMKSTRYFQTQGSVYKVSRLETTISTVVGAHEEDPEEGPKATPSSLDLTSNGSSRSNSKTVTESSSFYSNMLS

| Molecule | effect on neuropathic pain in animal models (neuropathic pain) | opioid-induced tolerance in animal models (neuropathic pain) | SP antagonist Ke, GPI [1] [nM] |
| --- | --- | --- | --- |
| Tyr^1-D-Ala^2-Gly^3-Phe^4-Met^5-Pro^6-Leu^7-Trp^8-O-[3′,5′-(CF3)2-Bzl] [TY005] | powerful attenuation of neuropathic pain | without producing the opioid-induced tolerance | – |
| CC(=O)N[C@@H](Cc1c[nH]c2ccccc12)C(=O)OCc1cc(C(F)(F)F)cc(C(F)(F)F)c1 [L-732,138] | – | – | 250 ± 87 |
